Where a chain is given by its changes, count along the chain named. Names and notes keep the numbering of the source.
Experiments:
[1] = system: CyPPO16 wild type (SEQ ID NO: 1) in PPO-deficient E. coli BT3(ΔPPO); format: cell-based; settings: LB agar, 37° C., light, 16 to 20 hours
Experimental: (§1) The mutated CyPPO gene obtained from the Example 2 was transformed to BT3 (ΔPPO) strain which is deficient of PPO activity and cultured in LB media with PPO-inhibiting herbicide, thereby examining whether growth of transformed BT3 was not inhibited.
(§2) BT3 competent cells were transformed with the pET303-CyPPO16 and pET303-CyPPO17 plasmids and those with a mutation(s) constructed in Example 2 respectively, and were cultured in LB agar media containing carbenicillin (Gold Biotechnology, Co., Ltd.).
(§3) Single colony of E. coli transformed with each CyPPO gene was cultured in 3 ml of LB broth containing carbenicillin overnight, and then was subcultured until absorbance (0D600) reached 0.5 to 1. Then, it was diluted with LB broth to OD600=0.5. Again, the diluted solution was serially diluted 4 times by a factor of one tenth.
(§4) The LB agar media (LB 25 g/l, Bacto agar 15 g/l) containing carbenicillin (100 μg/ml) and 0 to 4,000 μM of various herbicides dissolved in DMSO was prepared. Next, 10 μl of each diluted solution was dropped on the plate and cultured at 37° C. under light (Tables 7 and 9, FIGS. 2 to 6, and 18 to 22) or dark (Tables 8 and 10, FIGS. 7 to 17, and 23 to 33) for 16 to 20 hours. Then, extent of tolerance was evaluated.
(§5) The extent of herbicide tolerance of the mutated genes was evaluated by comparing that of mutated genes with that of wild type. The relative tolerance was represented with “+” as a factor of 10 times. Evaluation result was listed in Tables 7 to10 and FIGS. 2 to 33:
(§6) In Tables 7 to 10, tolerance level was presented as of tolerance of wild type and of variants equivalent to that of wild type, and was done as ‘+’ per each 10 fold resistance until ‘+++++’ as maximal resistance. (Tolerance level was evaluated by relative growth level of variants to that of wild type in the media containing highest concentration of herbicide; ‘+’=1-9 fold higher tolerance, ‘++’=10-99 fold higher tolerance, ‘+++’=100-999 fold higher tolerance, ‘++++’=1,000-9,999 fold higher tolerance, ‘+++++’=more than 10,000 fold higher tolerance)

[2] = system: CyPPO17 wild type (SEQ ID NO: 3) in PPO-deficient E. coli BT3(ΔPPO); format: cell-based; settings: LB agar, 37° C., light, 16 to 20 hours
Experimental: as §1, §2, §3, §4, §5, §6

[3] = system: CyPPO16 (SEQ ID NO: 1) variant A162C in PPO-deficient E. coli BT3(ΔPPO); format: cell-based; settings: LB agar, 37° C., light, 16 to 20 hours
Experimental: as §1, §2, §3, §4
(§7) The extent of herbicide tolerance of the mutated genes was evaluated by comparing that of mutated genes with that of wild type. The relative tolerance was represented with “+” as a factor of 10 times.
(§8) In Tables 7 to 10, tolerance level was presented as of tolerance of wild type and of variants equivalent to that of wild type, and was done as ‘+’ per each 10 fold resistance until ‘+++++’ as maximal resistance.

[4] = system: CyPPO16 (SEQ ID NO: 1) variant A162L in PPO-deficient E. coli BT3(ΔPPO); format: cell-based; settings: LB agar, 37° C., light, 16 to 20 hours
Experimental: as §1, §2, §3, §4, §7, §8

[5] = system: CyPPO16 (SEQ ID NO: 1) variant F360C in PPO-deficient E. coli BT3(ΔPPO); format: cell-based; settings: LB agar, 37° C., light, 16 to 20 hours
Experimental: as §1, §2, §3, §4, §7, §8

[6] = system: CyPPO16 (SEQ ID NO: 1) variant F360I in PPO-deficient E. coli BT3(ΔPPO); format: cell-based; settings: LB agar, 37° C., light, 16 to 20 hours
Experimental: as §1, §2, §3, §4, §7, §8

[7] = system: CyPPO16 (SEQ ID NO: 1) variant F360L in PPO-deficient E. coli BT3(ΔPPO); format: cell-based; settings: LB agar, 37° C., light, 16 to 20 hours
Experimental: as §1, §2, §3, §4, §7, §8

[8] = system: CyPPO16 (SEQ ID NO: 1) variant F360M in PPO-deficient E. coli BT3(ΔPPO); format: cell-based; settings: LB agar, 37° C., light, 16 to 20 hours
Experimental: as §1, §2, §3, §4, §7, §8

[9] = system: CyPPO16 (SEQ ID NO: 1) variant F360V in PPO-deficient E. coli BT3(ΔPPO); format: cell-based; settings: LB agar, 37° C., light, 16 to 20 hours
Experimental: as §1, §2, §3, §4, §7, §8

[10] = system: CyPPO16 (SEQ ID NO: 1) variant V305M in PPO-deficient E. coli BT3(ΔPPO); format: cell-based; settings: LB agar, 37° C., light, 16 to 20 hours
Experimental: as §1, §2, §3, §4, §7, §8

[11] = system: CyPPO17 (SEQ ID NO: 3) variant A166L in PPO-deficient E. coli BT3(ΔPPO); format: cell-based; settings: LB agar, 37° C., light, 16 to 20 hours
Experimental: as §1, §2, §3, §4, §7, §8

[12] = system: CyPPO17 (SEQ ID NO: 3) variant F359C in PPO-deficient E. coli BT3(ΔPPO); format: cell-based; settings: LB agar, 37° C., light, 16 to 20 hours
Experimental: as §1, §2, §3, §4, §7, §8

[13] = system: CyPPO17 (SEQ ID NO: 3) variant F359I in PPO-deficient E. coli BT3(ΔPPO); format: cell-based; settings: LB agar, 37° C., light, 16 to 20 hours
Experimental: as §1, §2, §3, §4, §7, §8

[14] = system: CyPPO17 (SEQ ID NO: 3) variant F359L in PPO-deficient E. coli BT3(ΔPPO); format: cell-based; settings: LB agar, 37° C., light, 16 to 20 hours
Experimental: as §1, §2, §3, §4, §7, §8

[15] = system: CyPPO17 (SEQ ID NO: 3) variant F359M in PPO-deficient E. coli BT3(ΔPPO); format: cell-based; settings: LB agar, 37° C., light, 16 to 20 hours
Experimental: as §1, §2, §3, §4, §7, §8

[16] = system: CyPPO17; test: Herbicide tolerance test of CyPPO17 wild type and variants in PPO-deficient E. coli BT3(ΔPPO); format: cell-based, Thermosynechococcus sp. NK55a; settings: BT3(ΔPPO) transformants; for Herbicide tolerance, tiafenacil: 37° C., 16 to 20 hours
Experimental: as §1, §2, §3, §4, §5, §6
The concentrations of herbicides were written above the photographs of tolerance test. A dilution series (0D600=0.5, 0.05, 0.005, 0.0005, 0.00005) was made and spotted on LB agar plates supplemented with herbicides.

[17] = system: CyPPO17; test: PPO enzyme activity of MBP-fused CyPPO17 wild type and variants; format: biochemical, Thermosynechococcus sp. NK55a; settings: PPO enzyme activity relative to wild type; MBP-fused protein, 50 μM protoporphyrinogen IX, room temperature, 30 min
Experimental: Thus, PPO proteins of wild type and variants were expressed as fused to MBP and were used for experiments.
The following process for purification of PPO protein was performed in a 4° C. cold room. Amylose resin (NEB) was packed to 1.5×15 cm column (Bio-Rad, Econo Columns 1.5×15 cm, glass chromatography column, max. vol), and the obtained protein extracts were loaded to the column at a flow rate of 0.2 ml/min. The column was washed with 3 column volumes of buffer and the presence of protein in the washing solution was examined. When the protein was no longer detected, the washing procedure was terminated. Then, the MBP-PPO protein was eluted with approximately 2 column volumes of buffer containing 20 mM maltose. The protein concentration of each eluent was determined and the elution was stopped when the protein was no longer detected. Ten microliter of each fraction was investigated for protein quantification and SDS-PAGE analysis. The highly pure fractions of PPO protein variants were used for the enzyme assay.
Since protoporphyrinogen IX, a substrate of PPO protein, was not commercially available, it was chemically synthesized in the laboratory. Overall process was performed in dark under nitrogen stream. […] of protoporphyrin IX was dissolved in 20 ml of 20% (v/v) EtOH, and stirred under dark condition for 30 minutes. The obtained protoporphyrin IX solution was put into a 15 ml screw tube in an amount of 800 μl, and flushed with nitrogen gas for 5 minutes. To this, 1.5 g of sodium amalgam was added and vigorously shaken for 2 minutes. The lid was opened to exhaust hydrogen gas in the tube. Thereafter, the lid was closed and incubated for 3 minutes. The protoporphyrinogen IX solution was filtered using syringe and cellulose membrane filter. […] To determine the enzyme activity of PPO protein, a reaction mixture was prepared with the following composition (based on 10 ml): 50 mM Tris-Cl (pH 8.0); 50 mM NaCl; 0.04% (v/v) Tween 20; 40 mM glucose (0.072 g); 5 units glucose oxidase (16.6 mg); and 10 units catalase (1 μl).
Hundred and eighty microliters of a reaction mixture containing the purified PPO protein were placed in 96 well plates and 20 μl of […] were added. […] The reaction proceeded at room temperature for 30 min and the fluorescence of protoporphyrin IX was measured using Microplate reader (Sense, Hidex) (excitation: 405 nm; emission: 633 nm). […] To this, 2.7 N HCl was added, and the absorbance at 408 nm was measured. A standard curve was generated using standard protoporphyrin IX, and PPO activity was measured by calibration of protoporphyrin IX using the standard curve of protoporphyrin IX.
Activities of variants were presented relatively compared to that of wild type.

[18] = one amino acid mutation, light, relative to wild type at highest concentration (50, 100 μM)
[19] = one amino acid mutation, light, relative to wild type at highest concentration (5, 25 μM)

Molecule: C#CCN(C)c1c(C#N)cnn1-c1nn2c(c1Cl)CCCC2 [pyraclonil]
- Herbicide tolerance (relative to wild type) [1]: −
- Herbicide tolerance (relative to wild type) [2]: −
- Herbicide tolerance (relative to wild type) [3]: ++ (10-99 fold higher tolerance)
- Herbicide tolerance (relative to wild type) [4]: ++ (10-99 fold higher tolerance)
- Herbicide tolerance (relative to wild type) [5]: ++ (10-99 fold higher tolerance)
- Herbicide tolerance (relative to wild type) [6]: + (1-9 fold higher tolerance)
- Herbicide tolerance (relative to wild type) [7]: + (1-9 fold higher tolerance)
- Herbicide tolerance (relative to wild type) [8]: + (1-9 fold higher tolerance)
- Herbicide tolerance (relative to wild type) [9]: + (1-9 fold higher tolerance)
- Herbicide tolerance (relative to wild type) [10]: + (1-9 fold higher tolerance)
- Herbicide tolerance (relative to wild type) [11]: + (1-9 fold higher tolerance)
- Herbicide tolerance (relative to wild type) [12]: + (1-9 fold higher tolerance)
- Herbicide tolerance (relative to wild type) [13]: + (1-9 fold higher tolerance)
- Herbicide tolerance (relative to wild type) [14]: + (1-9 fold higher tolerance)
- Herbicide tolerance (relative to wild type) [15]: + (1-9 fold higher tolerance)

B1: F359V: CyPPO17 variant (protein)
chain: MEVDVAIVGGGLSGLSVAWRLQQSAPQYSGVLLEASDRLGGNITTQGAEGFVWELGPNSFAPTPALLQLIAEVGLHSELIRGDRHLPRYIYWRGELYPLEPTRPLALATSNLLSPWGKVRAALGALGFVPPYLGSGDESVNSFFRRHLGQEVAERLVAPFVSGVYAGDPQQLSAAAAFRRIAQLEKLGGGLIAGALRLRRQQPPKPRPPAEVQMRPGELGSFKEGLAALPRAIAQQLKAPVHLQTPVEAITPEPNGGYLLRSGEQTWQARSVVLATPAYQTAALVAPFQPAIARVLAAIPYPTVACVVLAYPAGLGRSVRPGFGVLIPRGQGIRTLGTIWSSCLFPQRTPAGWQVFTSVIGGATDPDLASLREEAIVQQVQQDLTRLLDLPAAKARLLGMKVWRRAIPQYLVGYPQQWQQVTHALSQTPGLFLCSNYAEGVALGDRVEHGNRTAAAVAAYLSGGQS
modifications: Synthetic (Protoporphyrinogen IX oxidase (CyPPO17) of Thermosynechococcus sp. NK55a)
notes: CyPPO17 variant
- Herbicide tolerance, tiafenacil [16, 18]: ++ (‘++’=10-99 fold higher tolerance)
- Herbicide tolerance, pyraflufen-ethyl ([16]; one amino acid mutation, light, relative to wild type at highest concentration (5, 10 μM)): ++ (‘++’=10-99 fold higher tolerance)
- Herbicide tolerance, acifluorfen [16, 19]: + (‘+’=1-9 fold higher tolerance)
- Herbicide tolerance, fomesafen [16, 19]: + (‘+’=1-9 fold higher tolerance)
- Herbicide tolerance, pentoxazone [16, 19]: ++ (‘++’=10-99 fold higher tolerance)
- Herbicide tolerance, pyraclonil [16, 19]: + (‘+’=1-9 fold higher tolerance)
- Herbicide tolerance, sulfentrazone [16, 19]: ++ (‘++’=10-99 fold higher tolerance)
- Herbicide tolerance, flumioxazin [16, 18]: ++ (‘++’=10-99 fold higher tolerance)
- Herbicide tolerance, saflufenacil ([16]; one amino acid mutation, light, relative to wild type at highest concentration (50, 200 μM)): +++ (‘+++’=100-999 fold higher tolerance)
- Activity (%) [17]: 84%

B2: L326T + F359M: CyPPO17 variant (protein)
chain: B1 chain with L326T, V359M
modifications: Synthetic (Protoporphyrinogen IX oxidase (CyPPO17) of Thermosynechococcus sp. NK55a)
notes: CyPPO17 variant
- Herbicide tolerance, tiafenacil ([16]; two or more amino acid mutations, dark, relative to wild type at highest concentration (50, 200 μM)): ++++ (‘++++’=1,000-9,999 fold higher tolerance)
- Herbicide tolerance, flumioxazin ([16]; two or more amino acid mutations, dark, relative to wild type at highest concentration (100, 200 μM)): ++++ (‘++++’=1,000-9,999 fold higher tolerance)
- Herbicide tolerance, sulfentrazone ([16]; two or more amino acid mutations, dark, relative to wild type at highest concentration (200, 400 μM)): +++ (‘+++’=100-999 fold higher tolerance)
- Activity (%) [17]: 74%
